Measured values published in patent US20140343143A1, “Use of highly concentrated compositions of selected n-3 fatty acids for the treatment of central nervous system disturbances” (priority 2004, published 2014).

Tests used:
[1] = test system: seizures in study strain rats; experiment: Preliminary determination of the epileptogenic ED50 of pentylenetetrazol; format: in vivo; conditions: Rattus norvegicus, ip, read-out: ED50 (dose effective on 50% of rats) of the epileptogenic agent, i.p., preliminary experiment
[2] = test system: pentylenetetrazol-induced major motor seizures; experiment: Pentylenetetrazol (100 mg/kg i.p.)-induced seizures in rats (Example 4); format: in vivo, rat
Method: At the end, all the groups were treated with 100 mg/kg i.p. of pentylenetetrazol, and the animals underwent the following control exams: 1) length of latency period to the first major motor seizures (tonic-clonic contractions of the limbs, trunk and head; falling; saliva and blood discharge from the mouth); 2) number of rats responding with major motor seizures (or protected from seizure); 3) mean duration of the major motor seizure (MMS); 4) number of rats presenting minor clonic contractions (MCC), such as a sudden flexion of the forelegs or extension of the rear legs; 5) number of rats who died within 20 minutes or 5 hours after pentylenetetrazol injection.

[3] = test system: amphetamine-induced hyperactivity and risk-taking behaviour; experiment: Amphetamine-induced behavioural model of mania, open field test in rats; conditions: sodium valproate 20 mg/kg i.p., short times, preliminary experiment
[4] = daily i.p. 2 weeks: n-3 50 mg/kg, clonazepam 5 mg/kg, or same doses combined, then pentylenetetrazol 100 mg/kg i.p., mean ± SD

`C1CCc2nnnn2CC1` [pentylenetetrazol] showed an ED50 [1] of 70 to 75 mg/kg.

With `O=C1CN=C(c2ccccc2Cl)c2cc([N+](=O)[O-])ccc2N1` [clonazepam] the “Duration of seizures” value [2, 4] was 25 ± 6 s, the “Latency to seizures” value [2, 4] was 203 ± 12 s and the “Dead animals <20′” value ([2]; died within 20 minutes after pentylenetetrazol injection, n/10) was 2/10. The “Dead animals <5 h” value ([2]; died within 5 hours after pentylenetetrazol injection, n/10) was 4/10, the “Rats with MMS (n/tot)” value ([2]; major motor seizures, same treatment, pentylenetetrazol 100 mg/kg i.p.) was 1/10 and the “Rats with MCC (n/tot)” value ([2]; minor clonic contractions, same treatment, pentylenetetrazol 100 mg/kg i.p.) was 3/10.

With `CCCC(CCC)C(=O)[O-].[Na+]` [sodium valproate] the “effect of valproate alone at the dose used in the combination” value [3] was “ineffective when taken alone”.
